In PubChem BioAssay AID330 (DTP/NCI, 2004):
Several values for one entry are separate records, joined by “and”; a condition that tells them apart may be missing. Equal values may be shown once. Toxic doses and inconclusive results are not listed. Rule for the calls: active = survival T/C of 150% or more; inactive = T/C below 125% in these data.

System: P388 leukemia ip, CD2F1 mice, survival T/C
Experiment: NCI In Vivo Anticancer Drug Screen. Data for tumor model P388 Leukemia (intraperitoneal) in CD2F1 (CDF1) mice
Details: endpoint: median survival time, higher = longer survival
Summary of the method: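 Mice carrying the transplanted tumor received test compound or vehicle. Survival was recorded in each group, and the value is the treated-group measurement divided by that of the vehicle-treated control group.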

[1] = dose: 50.0 mg/kg/injection, schedule: Q01DX009 (ip), vehicle: saline
[2] = dose: 100.0 mg/kg/injection, schedule: Q01DX009 (ip), vehicle: saline
[3] = dose: 25.0 mg/kg/injection, schedule: Q01DX001 (ip), vehicle: saline with Tween-80
[4] = dose: 50.0 mg/kg/injection, schedule: Q01DX009 (ip), vehicle: saline with Tween-80
[5] = dose: 100.0 mg/kg/injection, schedule: Q01DX009 (ip), vehicle: saline with Tween-80
[6] = dose: 200.0 mg/kg/injection, schedule: Q01DX009 (ip), vehicle: saline with Tween-80
[7] = dose: 50.0 mg/kg/injection, schedule: Q01DX005 (ip), vehicle: saline with Tween-80
[8] = dose: 100.0 mg/kg/injection, schedule: Q01DX005 (ip), vehicle: saline with Tween-80
[9] = dose: 200.0 mg/kg/injection, schedule: Q01DX005 (ip), vehicle: saline with Tween-80
[10] = dose: 12.5 mg/kg/injection, schedule: Q01DX009 (ip), vehicle: gum acacia
[11] = dose: 60.0 mg/kg/injection, schedule: Q01DX005 (ip), vehicle: Klucel (hydroxypropylcellulose) (HPC)
[12] = dose: 120.0 mg/kg/injection, schedule: Q01DX005 (ip), vehicle: Klucel (hydroxypropylcellulose) (HPC)
[13] = dose: 240.0 mg/kg/injection, schedule: Q01DX005 (ip), vehicle: Klucel (hydroxypropylcellulose) (HPC)
[14] = dose: 50.0 mg/kg/injection, schedule: Q01DX005 (ip), vehicle: Klucel (hydroxypropylcellulose) (HPC)
[15] = dose: 100.0 mg/kg/injection, schedule: Q01DX005 (ip), vehicle: Klucel (hydroxypropylcellulose) (HPC)
[16] = dose: 200.0 mg/kg/injection, schedule: Q01DX005 (ip), vehicle: Klucel (hydroxypropylcellulose) (HPC)

Measured: T/C

CCN(CC)CCOC(=O)C(c1ccccc1)C(C)(O)CC (stereo not given)
inactive: dose: 25.0 mg/kg/injection, schedule: Q01DX009 (ip), vehicle: saline 105 % of control | [1] 100 % of control | [2] 115 % of control

Cn1ncc2c(N)c(C#N)c(=O)[nH]c21
inactive: [3] 102 % of control

COc1cccc(-c2nc3n(n2)CCc2ccccc2-3)c1
inactive: [4] 105 % of control | [5] 106 % of control | [6] 86 % of control

COc1ccc2c(c1)CCC1=C2CCS1(=O)=O
inactive: [7] 99 % of control | [8] 97 % of control | [9] 103 % of control

COc1ccc(Cl)cc1C(c1cc(Cl)ccc1OC)C(Cl)(Cl)Cl
inactive: [5] 100 % of control | [6] 100 % of control | dose: 400.0 mg/kg/injection, schedule: Q01DX009 (ip), vehicle: saline with Tween-80 90 % of control

CCOc1ccc(N=Nc2c(O)n(-c3ccc(Br)cc3)c(=S)n(-c3ccccc3)c2=O)cc1
inactive: dose: 100.0 mg/kg/injection, schedule: Q01DX001 (ip), vehicle: saline with Tween-80 107 % of control | dose: 200.0 mg/kg/injection, schedule: Q01DX001 (ip), vehicle: saline with Tween-80 98 % of control | dose: 400.0 mg/kg/injection, schedule: Q01DX001 (ip), vehicle: saline with Tween-80 100 % of control

CC(=O)C(C)(C)Cc1cc(C(C)(C)CC=O)on1
inactive: dose: 60.0 mg/kg/injection, schedule: Q01DX005 (ip), vehicle: saline with Tween-80 107 % of control | dose: 120.0 mg/kg/injection, schedule: Q01DX005 (ip), vehicle: saline with Tween-80 100 % of control | dose: 240.0 mg/kg/injection, schedule: Q01DX005 (ip), vehicle: saline with Tween-80 108 % of control

CCC(C)C[c-]1[c-][c-][c-][c-]1.[Cl][Zr][Cl].[c-]1[c-][c-][cH-][c-]1 (stereo not given)
inactive: dose: 6.25 mg/kg/injection, schedule: Q04DX002 (ip), vehicle: saline 102 % of control | dose: 12.5 mg/kg/injection, schedule: Q01DX001 (ip), vehicle: saline with Tween-80 100 % of control | dose: 12.5 mg/kg/injection, schedule: Q04DX002 (ip), vehicle: saline 106 % of control | [3] 98 % of control | dose: 25.0 mg/kg/injection, schedule: Q04DX002 (ip), vehicle: saline 100 % of control | dose: 50.0 mg/kg/injection, schedule: Q01DX001 (ip), vehicle: saline with Tween-80 97 % of control

Cc1ccc(C)n1-n1nnnc1N
inactive: [7] 101 % of control | [8] 100 % of control

O=C(O)CCSSCCCCS(=O)O
inactive: dose: 50.0 mg/kg/injection, schedule: Q01DX005 (ip), vehicle: saline 114 % of control | dose: 100.0 mg/kg/injection, schedule: Q01DX005 (ip), vehicle: saline 114 % of control | dose: 200.0 mg/kg/injection, schedule: Q01DX005 (ip), vehicle: saline 100 % of control

Cn1c2cc(Cl)c(Cl)cc2nc2cc3c(cc21)c(Cl)c(=O)c1ccccc13
inactive: [4] 104 % of control | [5] 100 % of control | [6] 98 % of control

Cc1cccnc1NC(=S)Nc1ccccc1Cl
inactive: [10] 104 % of control | dose: 25.0 mg/kg/injection, schedule: Q01DX009 (ip), vehicle: gum acacia 96 % of control | dose: 50.0 mg/kg/injection, schedule: Q01DX009 (ip), vehicle: gum acacia 104 % of control | dose: 100.0 mg/kg/injection, schedule: Q01DX009 (ip), vehicle: gum acacia 95 % of control

O=S(=O)(O)c1ccc2c(-c3ccccc3)c3ccccc3c(-c3ccccc3)c2c1
inactive: [11] 99 % of control | [12] 100 % of control | [13] 98 % of control

Cc1ccc(N=NC2Sc3nc4ccccc4n3C2=O)cc1 (stereo not given)
inactive: [11] 101 % of control | [12] 97 % of control | [13] 88 % of control

O=S(=O)(O)O.[Cu+2].[NH-]CCCCC[NH-].[NH-]CCCCC[NH-]
inactive: dose: 1.56 mg/kg/injection, schedule: Q04DX002 (ip), vehicle: Klucel (hydroxypropylcellulose) (HPC) 100 % of control | dose: 3.12 mg/kg/injection, schedule: Q04DX002 (ip), vehicle: Klucel (hydroxypropylcellulose) (HPC) 98 % of control | dose: 6.25 mg/kg/injection, schedule: Q04DX002 (ip), vehicle: Klucel (hydroxypropylcellulose) (HPC) 100 % of control | dose: 12.5 mg/kg/injection, schedule: Q04DX002 (ip), vehicle: Klucel (hydroxypropylcellulose) (HPC) 88 % of control and 98 % of control

CC1=NN(c2ccccc2)C(=O)C1=Nc1c(C)[nH]n(-c2ccccc2)c1=O
inactive: dose: 15.0 mg/kg/injection, schedule: Q01DX009 (ip), vehicle: saline with Tween-80 103 % of control | dose: 30.0 mg/kg/injection, schedule: Q01DX009 (ip), vehicle: saline with Tween-80 101 % of control | [7] 114 % of control and 96 % of control | dose: 60.0 mg/kg/injection, schedule: Q01DX009 (ip), vehicle: saline with Tween-80 105 % of control | [8] 104 % of control and 102 % of control | [9] 98 % of control and 110 % of control

CC1NNC(=O)C1(Br)Br (stereo not given)
inactive: dose: 6.25 mg/kg/injection, schedule: Q01DX009 (ip), vehicle: gum acacia 100 % of control | [10] 91 % of control

Cc1ccc([B-]23OCC[N+]2(CNC(=O)C2=C(O)C4(O)C(=O)C5=C(O)c6c(O)cccc6C(C)(O)C5CC4C(N(C)C)C2=O)CCO3)cc1 (stereo not given)
inactive: [14] 108 % of control | [15] 108 % of control | [16] 113 % of control

O=C1N(Cc2ccccc2)CCN1Cc1ccccc1
inactive: [14] 95 % of control | [15] 94 % of control | [16] 104 % of control

CC(C)=C1N(C(C)C)C(=C(C)C)N(C(C)C)C(=C(C)C)N1C(C)C
inactive: [14] 96 % of control | [15] 100 % of control | [16] 89 % of control

CC1(C)OCC2OC(n3cnc4c(N)ncnc43)C(O)C2O1 (stereo not given)
inactive: dose: 25.0 mg/kg/injection, schedule: Q01DX009 (ip), vehicle: Klucel (hydroxypropylcellulose) (HPC) 111 % of control | dose: 50.0 mg/kg/injection, schedule: Q01DX009 (ip), vehicle: Klucel (hydroxypropylcellulose) (HPC) 111 % of control | dose: 100.0 mg/kg/injection, schedule: Q01DX009 (ip), vehicle: Klucel (hydroxypropylcellulose) (HPC) 111 % of control | dose: 200.0 mg/kg/injection, schedule: Q01DX009 (ip), vehicle: Klucel (hydroxypropylcellulose) (HPC) 97 % of control

CCOP(=O)(N(CCCl)CCCl)N1CCc2ccccc2C1 (stereo not given)
inactive: dose: 12.5 mg/kg/injection, schedule: Q04DX003 (ip), vehicle: saline with Tween-80 103 % of control | dose: 25.0 mg/kg/injection, schedule: Q04DX003 (ip), vehicle: saline with Tween-80 98 % of control | dose: 50.0 mg/kg/injection, schedule: Q04DX003 (ip), vehicle: saline with Tween-80 103 % of control | dose: 100.0 mg/kg/injection, schedule: Q04DX003 (ip), vehicle: saline with Tween-80 110 % of control | dose: 200.0 mg/kg/injection, schedule: Q04DX003 (ip), vehicle: saline with Tween-80 112 % of control | dose: 400.0 mg/kg/injection, schedule: Q04DX003 (ip), vehicle: saline with Tween-80 119 % of control

C/C(=C\CCC(C)C1CCC2(C)C3=C(CCC12C)C1(C)CCC(O)C(C)(C)C1CC3)C(=O)O (stereo not given)
inactive: dose: 12.5 mg/kg/injection, schedule: Q01DX005 (ip), vehicle: DMSO 103 % of control | dose: 25.0 mg/kg/injection, schedule: Q01DX005 (ip), vehicle: DMSO 101 % of control | dose: 50.0 mg/kg/injection, schedule: Q01DX005 (ip), vehicle: DMSO 88 % of control | dose: 100.0 mg/kg/injection, schedule: Q01DX005 (ip), vehicle: DMSO 91 % of control

NCCC1C2CC3CC(C2)CC1C3 (stereo not given)
inactive: [1] 88 % of control | [2] 88 % of control
